Values quoted from earlier work as cited in patent publication US20050182029A1, “Metformin salts of lipophilic acids” (Sonus Pharmaceuticals, Inc., priority 2002, published 2005).

How the values were obtained:
[1] = healthy human subjects

maximum metformin plasma levels (Cmax) (controlled clinical trials, even at maximum doses): ≤ 4000 ng/mL | steady-state plasma concentration (usual metformin doses and dosing schedules, reached within 24 to 48 hours): less than 1 ug/mL | colonic absorption [1]: poor colonic absorption
Structure (SMILES): CN(C)C(=N)N=C(N)N [metformin]
